# Data published in patent US20130116304A1, “TMEM195 ENCODES FOR TETRAHYDROBIOPTERIN-DEPENDENT ALKYLGLYCEROL MONOOXYGENASE ACTIVITY” (priority 2010, published 2013).
# T1: alkylglycerol monooxygenase (TMEM195) (Homo sapiens, UniProt Q6ZNB7)
# T1 construct: host or cells: CHO-K1 cells, transiently transfected with ExGen 500; pellets opened in water with 0.5% CHAPS
# T1 sequence (Q6ZNB7 1-445): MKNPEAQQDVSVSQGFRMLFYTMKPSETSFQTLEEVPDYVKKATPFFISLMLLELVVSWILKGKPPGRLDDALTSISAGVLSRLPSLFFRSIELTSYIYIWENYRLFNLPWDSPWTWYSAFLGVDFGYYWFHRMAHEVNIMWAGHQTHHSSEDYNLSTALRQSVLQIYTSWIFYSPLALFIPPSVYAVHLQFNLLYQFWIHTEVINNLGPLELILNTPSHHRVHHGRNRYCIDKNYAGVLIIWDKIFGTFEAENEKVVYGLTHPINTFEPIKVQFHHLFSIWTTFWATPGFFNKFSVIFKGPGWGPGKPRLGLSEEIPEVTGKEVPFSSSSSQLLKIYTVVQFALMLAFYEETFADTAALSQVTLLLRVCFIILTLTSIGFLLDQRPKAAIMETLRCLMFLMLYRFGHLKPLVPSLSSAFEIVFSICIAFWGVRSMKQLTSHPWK
# T2: alkylglycerol monooxygenase (Rattus norvegicus, UniProt A0JPQ8)
# T2 construct: those found in rat liver microsomes (KM 8.90 μM for 1-O-pyrenedecylglycerol); from tissue; host or cells: rat liver microsomes
# T2 sequence (A0JPQ8 1-447): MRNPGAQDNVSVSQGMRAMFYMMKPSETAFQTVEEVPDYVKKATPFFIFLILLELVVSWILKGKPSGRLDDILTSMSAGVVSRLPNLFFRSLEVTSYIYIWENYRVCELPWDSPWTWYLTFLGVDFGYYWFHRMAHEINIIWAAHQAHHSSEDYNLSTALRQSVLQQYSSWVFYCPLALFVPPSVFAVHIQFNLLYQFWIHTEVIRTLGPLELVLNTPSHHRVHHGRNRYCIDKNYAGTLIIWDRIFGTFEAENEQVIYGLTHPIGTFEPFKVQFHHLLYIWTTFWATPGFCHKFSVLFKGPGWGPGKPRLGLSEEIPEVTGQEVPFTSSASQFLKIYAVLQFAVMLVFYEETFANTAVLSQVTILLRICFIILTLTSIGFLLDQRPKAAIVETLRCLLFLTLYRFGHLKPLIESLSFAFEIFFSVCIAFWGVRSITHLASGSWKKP
# What was measured:
# [1] = target: T1, alkylglycerol monooxygenase (TMEM195); experiment: Alkylglycerol monooxygenase activity generated in CHO cells by transfection of TMEM195 and ALDH3A2 (pyrenedecanoic acid, HPLC with fluorescence detection); assay type: biochemical; conditions: mean±SEM
# Description: A pyrene-labelled alkylglycerol (1-O-pyrenedecyl-sn-glycerol) was used as substrate which was converted to pyrenedecanal by alkylglycerol monooxygenase. […] The reaction was started by addition of the protein and incubated for 60 min at 37° C. in the dark. Negative controls without protein (concentration of pyrenedecanoic acid <1 nM) and rat liver microsomes as positive controls were always run in parallel. After addition of 30 μl methanol and centrifugation for 5 min at 16,000 g, 10 μl of the sample were injected to a Zorbax XDB-C8 rapid resolution column (Agilent Technologies, Vienna, Austria) using an Agilent 1200 Series HPLC system. […] Pyrenedecanoic acid was detected by fluorescence (340 nm excitation and 400 nm emission, detection limit 1 nM).
# 80,000 Chinese hamster ovary Ki cells (CHO-K1, LGC Promochem, Wesel, Germany) were transfected with 1 μg of expression plasmids or plasmid pools using the ExGen 500 transfection agent (Fermentas, St. Leon-Rot, Germany) and standard protocols. […] For control of transfection efficiency, a plasmid encoding enhanced green fluorescent protein (pEGFP-N1, Clonetech, Mountain View, Calif., USA) was used and fluorescence quantified directly in the culture plates by a Typhoon 9410 scanner (GE Healthcare). […] Alkylglycerol monooxygenase activity (22) and fatty aldehyde dehydrogenase activity (31) were then determined as described.
# [2] = target: T2, alkylglycerol monooxygenase; conditions: rat liver microsomes; from reference (22); cited from earlier work
# [3] = substrate: C[C@H](O)[C@H](O)[C@H]1CNc2nc(N)[nH]c(=O)c2N1; experiment: purified protein, by the assay type; conditions: other: activity generated in CHO cells by transfection of TMEM195 and ALDH3A2; KM for substrate or cofactor; mean±SEM; 37.0 °C
molecule,measurement,setting,value
"c1cnc2c(c1)ccc1cccnc12 [1,10-Phenanthroline]",IC50,"[1]; activity generated in CHO cells by transfection, read-out: 50% inhibition of alkylglycerol monooxygenase activity",1390 ± 380 nM
"OC[C@H](O)COCCCCCCCCCCc1ccc2ccc3cccc4ccc1c2c34 [1-O-pyrenedecylglycerol, 1-O-pyrenedecyl-sn-glycerol]",Km,"[1]; activity generated in CHO cells by transfection of TMEM195 and ALDH3A2, KM for substrate or cofactor, read-out: Michaelis Menten constant (KM)",11 ± 1.1 µM
same,Km,[2],8.9 µM
C[C@H](O)[C@H](O)[C@H]1CNc2nc(N)[nH]c(=O)c2N1 [tetrahydrobiopterin],Km,[2],2.6 µM
alkylglycerol monooxygenase (TMEM195) (Homo sapiens) (protein) MKNPEAQQDVSVSQGFRMLFYTMKPSETSFQTLEEVPDYVKKATPFFISLMLLELVVSWILKGKPPGRLDDALTSISAGVLSRLPSLFFRSIELTSYIYIWENYRLFNLPWDSPWTWYSAFLGVDFGYYWFHRMAHEVNIMWAGHQTHHSSEDYNLSTALRQSVLQIYTSWIFYSPLALFIPPSVYAVHLQFNLLYQFWIHTEVINNLGPLELILNTPSHHRVHHGRNRYCIDKNYAGVLIIWDKIFGTFEAENEKVVYGLTHPINTFEPIKVQFHHLFSIWTTFWATPGFFNKFSVIFKGPGWGPGKPRLGLSEEIPEVTGKEVPFSSSSSQLLKIYTVVQFALMLAFYEETFADTAALSQVTLLLRVCFIILTLTSIGFLLDQRPKAAIMETLRCLMFLMLYRFGHLKPLVPSLSSAFEIVFSICIAFWGVRSMKQLTSHPWK,Km,[3],2.58 ± 0.42 µM
